# Key:
# [1] = molecular target: Protein farnesyltransferase (Homo sapiens, UniProt P49354+P49356); experiment: Inhibition of Farnesyltransferase; type: protein-complex assay
# [2] = Inhibition of Geranylgeranyl transferase type I; parameters: species or system Homo sapiens
structure (smiles),measurement,setting,value
CC(=O)Oc1cc(C=O)cc(C(=O)c2cccc(OC(C)=O)c2OC(C)=O)c1C=O,IC50,[1],2.4 µM
same,IC50,[2],85 µM
O=Cc1cc(O)c(C=O)c(C(=O)c2cccc(O)c2O)c1,IC50,[1],3.5 µM
same,IC50,[2],70 µM
